# Measurements taken from article PMC12693327, “SERAAK2 as a Serotonin Receptor Ligand: Structural and Pharmacological In Vitro and In Vivo Evaluation” (Molecules, 2025).
# Tested on: HepG2 cells
# Experiment: MTS cytotoxicity assay in HepG2 cells
# Assay type: cell-based, human
# Conditions: 72 h
# Protocol: The cytotoxic potential of SERAAK2 was evaluated in two human-derived cell lines chosen for their physiological relevance: HepG2 (hepatocellular carcinoma) and SH-SY5Y (neuroblastoma). […] It is particularly noteworthy that the use of the SERAAK2 compound at a concentration of 30 µM reduces the number of viable cells below the level of the positive control (doxorubicin) at the same concentration (Table 3). […] Under the experimental conditions used, after 72 h of incubation, a fraction of doxorubicin-treated cells remains metabolically active and generates a low signal in the MTS assay. The enhanced signal reduction observed in the MTS assay for the tested compound, compared to doxorubicin, indicates strong cytotoxic activity leading to necrosis of the entire cell population.
# An assessment of the cytotoxic potential of SERAAK2 was carried out utilizing the colorimetric MTS assay. This investigation was executed on both HepG2 and SH-SY5Y cell lines, adhering to an identical procedure. The cell lines, sourced from the American Type Culture Collection (Manassas, VA, USA), were cultured under standard conditions (5% CO2, 37 °C) in DMEM/F12 medium (#31330-038, ThermoFisher Scientific, Waltham, MA, USA). The medium was supplemented with 10% Fetal Bovine Serum (FBS, #A5256801, ThermoFisher Scientific) and a Penicillin–Streptomycin solution (#15140-122, ThermoFisher Scientific) until their use in the study. Cells within passage numbers 15 to 25 were plated in 96-well plates at a density of 5000 cells per well in 200 μL of medium and allowed to adhere during a 24 h incubation at 37 °C with 5% CO2. […] The plates were then subsequently returned to the 37 °C incubator, after which absorbance was recorded with a Spark microplate reader; this measurement occurred after 1 h for the HepG2 line and 3 h for the SH-SY5Y line. The ultimate cell viability percentage was determined by comparing results to the control wells, which represented 100% viability, and the wells treated with 10 μM doxorubicin, which were defined as 0% viability. […]
compound,measurement,setting,value
OC(CNCCc1c[nH]c2ccccc12)COc1ccc(Oc2ccccc2)cc1 (stereo not drawn) [SERAAK2],cytotoxic effects in HepG2 cells,0.3 µM,no cytotoxic effects
same,HepG2 cell viability,3 µM,85 % of the control
same,Percentage Reduction in the Number of Viable HepG2 Cells [Mean ± SEM],30 µM,104 ± 1%
